US6627653B2, “Anticonvulsant derivatives useful for the treatment of depression” (Ortho-McNeil Pharmaceutical, Inc., priority 2000, dated 2003)
Where two headings read alike, the source gives them in different places.

Columns and labels:
[1] = Clinical case study, Example 2: topiramate add-on therapy; assay type: in vivo, human; settings: for previous pharmacological treatment of patient's depression, outcome: treatment history of the Example 2 patient
Description: Initially the patient was started on topiramate add-on therapy at 25 mg/day, with increased dosage to 150 mg/day over the course of one month, in response to the patient's clinical behavior (the patient experienced suicidal ideation). One month later, the topiramate therapy was further increased to 300 mg/day, with the patient also taking 20 mg/day methylphenidate and 150 mg/day venlafaxine.

[2] = adjunctive therapy or monotherapy; cited from earlier work
[3] = Clinical case study, Example 1: topiramate added to existing pharmacotherapy; assay type: in vivo, human
Description: In the first case, the patient was a person who had suffered from depression for 25 years.
Topiramate was prescribed for the patient as add-on therapy to existing treatment of venlafaxine at 225 mg/day and mirtazapine at 30 mg/day. Topiramate treatment was initiated at 25 mg/day, with increased dosage to 150 mg/day. […] After six months, mirtazapine was withdrawn and topiramate daily dosage increased to 200 mg/day.
Following one year, topiramate and venlafaxine were withdrawn because of a surgical procedure. […] The patient was subsequently restarted on topiramate at 300 mg/day.

[4] = animal model of kindled epilepsy; cited from earlier work
[5] = several rodent models of epilepsy; cited from earlier work

N[C@@H]1C[C@H]1c1ccccc1 (racemic) [tranylcypromine]
previous pharmacological treatment of patient's depression, outcome [1]: unsuccessful

CN(C)CCC=C1c2ccccc2CCc2ccccc21 [amitriptyline]
previous pharmacological treatment of patient's depression, outcome [1]: unsuccessful

CC1(C)O[C@@H]2[C@@H](CO[C@@]3(COS(N)(=O)=O)OC(C)(C)O[C@@H]23)O1 [topiramate, 2,3:4,5-bis-O-(1-methylethylidene)-β-D-fructopyranose sulfamate]
efficacy in treating seizures [2]: effective | clinical evaluation of depression ([3]; after eight months, topiramate 300 mg/day): very much improved | clinical evaluation of depression ([3]; after six months, mirtazapine withdrawn, topiramate 200 mg/day): very much improved | clinical evaluation of depression ([3]; after two months, topiramate 150 mg/day add-on to venlafaxine 225 mg/day and mirtazapine 30 mg/day): very mild depressive | patient-reported state after restart ([3]; restarted on topiramate 300 mg/day after relapse, following six months of treatment): feeling very well | block of seizures [4]: effectively block seizures | block of seizures [5]: effectively block seizures | patient-reported state ([1]; after three month of treatment): never felt so well | mood state ([1]; at eight months of therapy, venlafaxine 150 mg/day and topiramate 300 mg/day): normothymic | clinical rating of depression ([1]; topiramate 300 mg/day with methylphenidate 20 mg/day and venlafaxine 150 mg/day, about two months): much improved
